From US9605064B2, “Methods and compositions for treatment of skin disorders” (AbbVie Biotechnology Ltd, priority 2006, dated 2017)
Where “and” joins values, the source holds several entries; their conditions need not be identical. Equal entries are not always repeated. Marks after values point to notes of the source that are not given here.

Columns and labels:
[1] = tested on: patients with moderate to severe plaque psoriasis; test: EuroQOL 5D (EQ-5D), Phase II trial; type: in vivo, human; conditions: Week 12
Procedure: This study provided the opportunity to evaluate the validity and responsiveness to change in clinical status of PROs instruments. Patients completed the DLQI, SF-36, and EQ-5D questionnaires at baseline and at 12 weeks. Blinded investigators assessed the Psoriasis Area and Severity Index (PASI) scores and the Physician's Global Assessment (PGA) scores of enrolled patients. The responsiveness of the measures to changes in the clinical endpoints from baseline to Week 12 was assessed. Estimates of minimum important differences (MID) were derived. All analyses were performed with blinded data; findings and conclusions were not biased based on treatment condition.
Three PROs measures were used in the study and are the subject of the analyses reported here. All PROs measures were assessed at baseline and at Week 12 (or early termination, if applicable).
The EQ-5D [17,18] is a six-item, preference-based instrument designed to measure general health status. The EQ-5D has two sections: The first consists of five items to assess degree of physical functioning (mobility, self-care, usual activities, pain/discomfort, and anxiety/depression). […]
The relationship between mean change in EQ-5D and clinical responses was evaluated from baseline to Week 12. […]

[2] = tested on: patients with moderate to severe chronic plaque psoriasis; test: PGA, CHAMPION 16-week Phase III trial; type: in vivo, human; conditions: ITT, missing PGA = not achieving
Procedure: Analytical methods included the following: • Intention-to-treat analyses were performed for all randomized patients • Missing data were analyzed using non-responder imputation (NRI) • PASI 75 at Week 16 (primary endpoint) was analyzed using adjusted Cochran-Mantel-Haenszel test.

[3] = tested on: patients with moderate to severe chronic plaque psoriasis; test: PASI response and PGA, 120-week open-label extension study; type: in vivo, human; conditions: 40 mg eow, as observed
Description: Exclusion criteria included prior TNF-antagonist therapy.

[4] = tested on: patients with severe psoriasis who were non-responders to high-dosage etanercept; test: DLQI, open-label adalimumab in non-responders to high-dosage etanercept; type: in vivo, human
Procedure: (§1) Details on clinical course and adverse events were recorded, along with measurements of PASI and Dermatology Life Quality Index (DLQI) at baseline and Weeks 2, 4, 8, and 12.
At each clinical visit PASI, DLQI, and percentage body surface area (% BSA) affected were assessed and recorded. In addition, patients received medical assessments together with monitoring laboratory investigations (FIG. 11).

[5] = tested on: patients with severe psoriasis who were non-responders to high-dosage etanercept; test: Adverse events, open-label adalimumab in non-responders to high-dosage etanercept; type: in vivo, human; conditions: 12 weeks
Procedure: as §1

[6] = tested on: patients with severe psoriasis who were non-responders to high-dosage etanercept; test: ESR and CRP, open-label adalimumab in non-responders to high-dosage etanercept; type: in vivo, human; conditions: Week 12; individual patients 1-5 (c1-c5); weekly adalimumab
Description: This was an open-label prospective evaluation of adalimumab (HUMIRA®, Abbott Laboratories, Abbott Park, Ill., USA). Patients who were non-responders to etanercept were recruited from the Severe Psoriasis Clinic at St John's Institute of Dermatology in London. […] Inclusion criteria included male and female patients more than 18 years of age with plaque psoriasis (Table 98). The study was approved by St Thomas' Research Ethics Committee, and informed consent was obtained from all participants.

[7] = tested on: patients with moderate to severe chronic plaque psoriasis; conditions: in vivo
[8] = tested on: patients with chronic plaque psoriasis; conditions: in vivo
Description: This 16-week, multicenter, open-label, Phase IIIb trial enrolled patients with chronic plaque psoriasis who were having a suboptimal response to ETN (Physician's Global Assessment [PGA]≧mild with months of therapy, or ≧3 months of therapy and deterioration of efficacy), MTX (PGA≧mild with ≧4 months of therapy), or narrow-band ultraviolet B (NB-UVB) phototherapy (PGA moderate with months of therapy). […] The primary endpoint was the proportion of patients who achieved PGA of clear or minimal at week 16. A secondary endpoint was the proportion achieving ≧1 grade of PGA improvement. Safety was assessed throughout the study. Efficacy analyses were intention to treat, with nonresponder imputation used for missing data. Efficacy and safety results were analyzed overall and for each prior-treatment group.

[9] = tested on: hepatitis B virus (HBV); conditions: cited from earlier work

Adalimumab: a human anti-TNF mAb, described in U.S. Pat. No. 6,090,382 as D2E7 (HUMIRA, Abbott Laboratories)
Mean Change in EQ-5D VAS, Change from Baseline ([1]; 40 mg eow): 18
Mean Change in EQ-5D VAS, Change from Baseline ([1]; 40 mg weekly): 10.9
PGA “Clear” or “Minimal” Responses, % Patients ([2]; Week 4): 7*† %
PGA “Clear” or “Minimal” Responses, % Patients ([2]; Week 8): 27‡§ %
PGA “Clear” or “Minimal” Responses, % Patients ([2]; Week 12): 48‡§ %
PGA “Clear” or “Minimal” Responses, % Patients ([2]; Week 16): 52‡§ %
PASI 50 response, % Patients ([3]; Week 12): 78.7%
PASI 75 response, % Patients ([3]; Week 12): 56.2%
PASI 90 response, % Patients ([3]; Week 12): 29.2%
PASI 100 response, % Patients ([3]; Week 12): 11.2%
PASI 50 response, % Patients ([3]; Week 24): 86.7%
PASI 75 response, % Patients ([3]; Week 24): 74.7%
PASI 90 response, % Patients ([3]; Week 24): 52%
PASI 100 response, % Patients ([3]; Week 24): 20%
PASI 50 response, % Patients ([3]; Week 48): 96.7%
PASI 75 response, % Patients ([3]; Week 48): 81.7%
PASI 90 response, % Patients ([3]; Week 48): 61.7%
PASI 100 response, % Patients ([3]; Week 48): 31.7%
PASI 50 response, % Patients ([3]; Week 72): 96.2%
PASI 75 response, % Patients ([3]; Week 72): 73.1%
PASI 90 response, % Patients ([3]; Week 72): 53.8%
PASI 100 response, % Patients ([3]; Week 72): 25%
PASI 50 response, % Patients ([3]; Week 96): 92.5%
PASI 75 response, % Patients ([3]; Week 96): 75.5%
PASI 90 response, % Patients ([3]; Week 96): 52.8%
PASI 100 response, % Patients ([3]; Week 96): 24.5%
PASI 50 response, % Patients ([3]; Week 120): 93.9%
PASI 75 response, % Patients ([3]; Week 120): 77.6%
PASI 90 response, % Patients ([3]; Week 120): 53.1%
PASI 100 response, % Patients ([3]; Week 120): 28.6%
DLQI ([4]; Week 2, individual patients 1-5 (c1-c5), weekly adalimumab): 17 and 10 and 30 and 9 and 5
DLQI ([4]; Week 4, individual patients 1-5 (c1-c5), weekly adalimumab): 16 and 5 and 28 and 4 and 7
DLQI ([4]; Week 8, individual patients 1-5 (c1-c5), weekly adalimumab): 15 and 3 and 0 and 9
DLQI ([4]; Week 12, individual patients 1-5 (c1-c5), weekly adalimumab): 6 (2×) and 1 and 26 and 2
mean decrease in DLQI score ([4]; five patients, Week 12): 8.8
% Improvement in DLQI from baseline to Week 12 ([4]; individual patients 1-5 (c1-c5), weekly adalimumab): 68% and 91% and 13% and 82% and 57%
Serious Adverse Events [5]: No serious adverse events were reported
CRP [6]: 7 mg/L and < 5 mg/L (3×) and recorded/<5 mg/L
ESR [6]: 13 mm/hr and 12 mm/hr (2×) and 2 mm/hr
serious infections [7]: no patients experienced serious infections
serious infection [8]: One subject
reactivation of hepatitis B virus (HBV) [9]: associated with reactivation of hepatitis B virus (HBV)
